Earlier results in patent US20260000626A1, “POLYMERIC NANOPARTICLES FOR LONG ACTING DELIVERY OF A PEPTIDE AND METHODS OF MAKING AND USING THEREOF” (Brown University, priority 2022, published 2026).

Experiments:
GLP-1 receptor [1] = molecular target: T1, GLP-1 receptor (Homo sapiens, UniProt P43220); details: vs intact GLP-1
GLP-1 receptor [2] = molecular target: T1, GLP-1 receptor; details: negligible agonistic activity

T1 sequence (P43220 24-463, species assumed): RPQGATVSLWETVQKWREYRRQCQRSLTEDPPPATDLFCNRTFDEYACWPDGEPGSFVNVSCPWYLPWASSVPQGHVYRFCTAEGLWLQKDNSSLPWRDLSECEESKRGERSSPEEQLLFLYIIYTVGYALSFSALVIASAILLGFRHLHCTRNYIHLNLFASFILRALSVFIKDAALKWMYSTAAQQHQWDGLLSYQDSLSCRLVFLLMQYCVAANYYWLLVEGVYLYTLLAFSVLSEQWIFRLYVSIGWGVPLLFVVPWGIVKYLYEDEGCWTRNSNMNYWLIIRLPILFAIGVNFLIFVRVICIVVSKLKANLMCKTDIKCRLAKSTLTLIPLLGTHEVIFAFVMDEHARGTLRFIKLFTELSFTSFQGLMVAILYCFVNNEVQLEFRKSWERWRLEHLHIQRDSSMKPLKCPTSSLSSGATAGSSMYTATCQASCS

lower binding affinity compared to the intact peptide (GLP-1 receptor [1]): 100 fold
decrease in agonistic activity (GLP-1 receptor [2]): > 10000 fold
Substance: GLP-1(9-36)-NH2
